Columns and labels:
[1] = Human microsome stability; type: in vitro ADME
Excerpt: (§1) Certain exemplified compounds were examined for ADMET (absorption, distribution, metabolism, excretion and toxicity) profiling using conventional assays with the results shown in the Tables 3A-3C below.

[2] = Mouse microsome stability; type: in vitro ADME; details: for half-life at 0.5 μM: Mouse microsomes, compound conc = 0.5 μM, n = 1, read-out: Mouse microsome stability Half life t1/2
Excerpt: as §1

[3] = target: T1, human PF4 (Homo sapiens, UniProt P02776); test: Inhibition of PF4 tetramer formation (BS3 cross-linking, SDS-PAGE); type: biochemical; details: for inhibition at 5 µM: 5 μM inhibitor; for inhibition at 5 µM / inhibition at 10 µM / inhibition at 1 µM / inhibition at 3 µM: read-out: % inhibition of PF4 tetramer formation at single concentration of inhibitor; for inhibition at 10 µM: 10 μM inhibitor (column A); for IC50: read-out: IC50 of PF4 tetramer formation inhibition; for inhibition at 1 µM: 1 μM inhibitor; for inhibition at 3 µM: 3 μM inhibitor (column A)
T1 construct: PF4 is a 70 amino acid, lysine-rich 7.8 kDa platelet-specific protein; made in house; host or cells: Escherichia coli BL21DE3 pLysS (pT7-7) and/or Drosophila S2 cells
T1 sequence (P02776 32-101): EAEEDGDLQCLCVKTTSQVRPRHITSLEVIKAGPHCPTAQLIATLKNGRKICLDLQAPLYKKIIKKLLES
In short: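 Monomer, dimer, trimer and tetramer fractions were quantified by densitometry after reducing 12% SDS-PAGE of BS3-cross-linked (0.2 mM, 30 min, room temperature) PF4. Before cross-linking, 10 μg/ml E. coli-expressed human WT PF4 in PBS was exposed to compound for 15 min at 37° C or 60 min at room temperature; controls lacked compound.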

## Cc1ncc2n1-c1ccc(Cl)cc1C(c1ccccc1F)=NC2 [Midazolam, midazolam, reference compound]
[1]; Human microsomes, compound conc = 0.5 μM, n = 1
  Human microsome stability Half life t1/2: 4 min
[2]
  half-life at 0.5 μM: 5.3 min

## O=C(c1ccc2c(c1)C(=O)C(C(=O)NCCc1ccccc1)C2=O)c1ccc2c(c1)C(=O)C(C(=O)NCCc1ccccc1)C2=O (stereo not shown) [Example 20, 5,5′-carbonylbis(1,3-dioxo-indan-2-carboxylic acid (2-phenylethyl)-amide)]
[1]; Human microsomes, compound conc = 0.5 μM, n = 1, read-out: Human microsome stability Half life t1/2
  half-life at 0.5 μM: > 145 min
[1]; Human microsomes, compound conc = 0.5 μM, n = 1, read-out: Human microsome stability Intrinsic Clearance Clint (ml/min/mg protein)
  microsomal CLint at 0.5 μM: < 9.5 mL/min/mg
[1]; human microsomes
  intrinsic clearance in human microsome assay: low intrinsic clearance
  stability in human microsome assay: excellent stability
[2]
  half-life at 0.5 μM: > 145 min
[2]; mouse microsomes
  intrinsic clearance in mouse microsome assay: low intrinsic clearance
  stability in mouse microsome assay: excellent stability
[3]
  inhibition at 5 µM: 83%
  inhibition at 10 µM: 92%
  IC50: 5.75 µM

## CO[C@H](C)[C@H](N)C(=O)C1C(=O)c2ccc(C(=O)c3ccc4c(c3)C(=O)C(C(=O)[C@@H](N)[C@@H](C)OC)C4=O)cc2C1=O (stereo partly drawn) [Example 128, 2-[(2S,3R)-2-amino-3-methoxybutanoyl]-5-{2-[(2S,3R)-2-amino-3-methoxybutanoyl]-1,3-dioxo-2,3-dihydro-1H-indene-5-carbonyl}-2,3-dihydro-1H-indene-1,3-dione]
[3]
  inhibition at 5 µM: 51%
  inhibition at 10 µM: 87%
  IC50: 7.8 µM

## O=C(c1ccnc(-c2ccccc2)c1)C1C(=O)c2ccc(S(=O)(=O)c3ccc4c(c3)C(=O)C(C(=O)c3ccnc(-c5ccccc5)c3)C4=O)cc2C1=O (stereo not shown) [Example 241, 5-{[1,3-dioxo-2-(2-phenylpyridine-4-carbonyl)-2,3-dihydro-1H-inden-5-yl]sulfonyl}-2-(2-phenylpyridine-4-carbonyl)-2,3-dihydro-1H-indene-1,3-dione]
[3]
  inhibition at 1 µM: 14%
  inhibition at 3 µM: 29%

## CS(=O)(=O)N1CCC(NC(=O)C2C(=O)c3ccc(Oc4ccc5c(c4)C(=O)C(C(=O)NC4CCN(S(C)(=O)=O)CC4)C5=O)cc3C2=O)CC1 (stereo not shown) [Example 369, N-(1-methanesulfonylpiperidin-4-yl)-5-({2-[(1-methanesulfonylpiperidin-4-yl)carbamoyl]-1,3-dioxo-2,3-dihydro-1H-inden-5-yl}oxy)-1,3-dioxo-2,3-dihydro-1H-indene-2-carboxamide]
[3]
  inhibition at 1 µM: 1%
  inhibition at 3 µM: 21%

## O=C(c1ccc2c(c1)C(=O)C(C(=O)CC1CC1)C2=O)c1ccc2c(c1)C(=O)C(C(=O)CC1CC1)C2=O (stereo not shown) [Example 140, 2-(2-cyclopropylacetyl)-5-[2-(2-cyclopropylacetyl)-1,3-dioxo-2,3-dihydro-1H-indene-5-carbonyl]-2,3-dihydro-1H-indene-1,3-dione]
[3]
  inhibition at 5 µM: 92%
  inhibition at 10 µM: 93%
  IC50: 4.7 µM

## O=C(O)CNC(=O)C1C(=O)c2ccc(C(=O)c3ccc4c(c3)C(=O)C(C(=O)NCC(=O)O)C4=O)cc2C1=O (stereo not shown) [Example 309, 2-[(5-{2-[(carboxymethyl)carbamoyl]-1,3-dioxo-2,3-dihydro-1H-indene-5-carbonyl}-1,3-dioxo-2,3-dihydro-1H-inden-2-yl)formamido]acetic acid]
[3]
  inhibition at 1 µM: 20%
  inhibition at 3 µM: 32%

## CC[C@H](C)[C@H](NC(=O)C1C(=O)c2ccc(S(=O)(=O)c3ccc4c(c3)C(=O)C(C(=O)N[C@H](C(=O)OC)[C@@H](C)CC)C4=O)cc2C1=O)C(=O)OC (stereo partly drawn) [Example 333, methyl (2S,3S)-2-({5-[(2-{[(2S,3S)-1-methoxy-3-methyl-1-oxopentan-2-yl]carbamoyl}-1,3-dioxo-2,3-dihydro-1H-inden-5-yl)sulfonyl]-1,3-dioxo-2,3-dihydro-1H-inden-2-yl}formamido)-3-methylpentanoate]
[3]
  inhibition at 1 µM: 15%
  inhibition at 3 µM: 21%

## O=C(c1ccc2c(c1)C(=O)C(C(=O)[C@@H]1CCNC1)C2=O)c1ccc2c(c1)C(=O)C(C(=O)[C@H]1CCCN1)C2=O (stereo partly drawn) [Example 349, 5-{1,3-dioxo-2-[(3R)-pyrrolidine-3-carbonyl]-2,3-dihydro-1H-indene-5-carbonyl}-2-[(2R)-pyrrolidine-2-carbonyl]-2,3-dihydro-1H-indene-1,3-dione]
[3]
  inhibition at 1 µM: 2%
  inhibition at 3 µM: 27%

## CS(=O)(=O)N1CCC(NC(=O)C2C(=O)c3ccc(C(=O)c4ccc5c(c4)C(=O)C(C(=O)NC4CCN(S(C)(=O)=O)CC4)C5=O)cc3C2=O)CC1 (stereo not shown) [Example 365, N-(1-methanesulfonylpiperidin-4-yl)-5-{2-[(1-methanesulfonylpiperidin-4-yl)carbamoyl]-1,3-dioxo-2,3-dihydro-1H-indene-5-carbonyl}-1,3-dioxo-2,3-dihydro-1H-indene-2-carboxamide]
[3]
  inhibition at 1 µM: 27%
  inhibition at 3 µM: 63%
  IC50: 3.39 µM

## O=C(CN1CCCC1=O)C1C(=O)c2ccc(C#Cc3ccc4c(c3)C(=O)C(C(=O)CN3CCCC3=O)C4=O)cc2C1=O (stereo not shown) [Example 293, 5-(2-{1,3-dioxo-2-[2-(2-oxopyrrolidin-1-yl)acetyl]-2,3-dihydro-1H-inden-5-yl}ethynyl)-2-[2-(2-oxopyrrolidin-1-yl)acetyl]-2,3-dihydro-1H-indene-1,3-dione]
[3]
  inhibition at 1 µM: 28%
  inhibition at 3 µM: 43%

## CC(C)CCCC(=O)C1C(=O)c2ccc(C(c3ccc4c(c3)C(=O)C(C(=O)CCCC(C)C)C4=O)(C(F)(F)F)C(F)(F)F)cc2C1=O (stereo not shown) [Example 194, 5-{1,1,1,3,3,3-hexafluoro-2-[2-(5-methylhexanoyl)-1,3-dioxo-2,3-dihydro-1H-inden-5-yl]propan-2-yl}-2-(5-methylhexanoyl)-2,3-dihydro-1H-indene-1,3-dione]
[3]
  IC50: ~1.5 µM

## CC(C)(C)OC(=O)N1C[C@H](F)C[C@H]1C(=O)C1C(=O)c2ccc(-c3ccc4c(c3)C(=O)C(C(=O)[C@@H]3C[C@@H](F)CN3C(=O)OC(C)(C)C)C4=O)cc2C1=O (stereo partly drawn) [Example 215, tert-butyl (2S,4R)-2-{2′-[(2S,4R)-1-[(tert-butoxy)carbonyl]-4-fluoropyrrolidine-2-carbonyl]-1,1′,3,3′-tetraoxo-1H,1′H,2H,2′H,3H,3′H-[5,5′-biindene]-2-carbonyl}-4-fluoropyrrolidine-1-carboxylate]
[3]
  IC50: 2.4 µM

## CN(CC(=O)C1C(=O)c2ccc(C(=O)c3ccc4c(c3)C(=O)C(C(=O)CN(C)C(=O)OC(C)(C)C)C4=O)cc2C1=O)C(=O)OC(C)(C)C (stereo not shown) [Example 264, tert-butyl N-(2-{5-[2-(2-{[(tert-butoxy)carbonyl](methyl)amino}acetyl)-1,3-dioxo-2,3-dihydro-1H-indene-5-carbonyl]-1,3-dioxo-2,3-dihydro-1H-inden-2-yl}-2-oxoethyl)-N-methylcarbamate]
[3]
  inhibition at 1 µM: 72%
  inhibition at 3 µM: 75%
  IC50: 9.83 µM

## CN(CC(=O)C1C(=O)c2ccc(Oc3ccc4c(c3)C(=O)C(C(=O)CN(C)C(=O)OC(C)(C)C)C4=O)cc2C1=O)C(=O)OC(C)(C)C (stereo not shown) [Example 263, tert-butyl N-[2-(5-{[2-(2-{[(tert-butoxy)carbonyl](methyl)amino}acetyl)-1,3-dioxo-2,3-dihydro-1H-inden-5-yl]oxy}-1,3-dioxo-2,3-dihydro-1H-inden-2-yl)-2-oxoethyl]-N-methylcarbamate]
[3]
  inhibition at 1 µM: 72%
  inhibition at 3 µM: 69%
  IC50: 2.07 µM

## O=C(c1ccc2c(c1)C(=O)C(C(=O)NC1CCC1)C2=O)c1ccc2c(c1)C(=O)C(C(=O)NC1CCC1)C2=O (stereo not shown) [Example 68, 5,5′-carbonylbis(n-cyclobutyl-1,3-dioxo-2,3-dihydro-1h-indene-2-carboxamide)]
[3]
  inhibition at 5 µM: 45%
  inhibition at 10 µM: 86%
  IC50: 1.54 µM

## CCCC(=O)C1C(=O)c2ccc(Oc3ccc4c(c3)C(=O)C(C(=O)CCC)C4=O)cc2C1=O (stereo not shown) [Example 321, 2-butanoyl-5-[(2-butanoyl-1,3-dioxo-2,3-dihydro-1H-inden-5-yl)oxy]-2,3-dihydro-1H-indene-1,3-dione]
[3]
  inhibition at 1 µM: 17%
  inhibition at 3 µM: 23%

## CC(C)(C)OC(=O)NCC(=O)C1C(=O)c2ccc(C(=O)c3ccc4c(c3)C(=O)C(C(=O)CNC(=O)OC(C)(C)C)C4=O)cc2C1=O (stereo not shown) [Example 173, tert-butyl N-(2-{5-[2-(2-{[(tert-butoxy)carbonyl]amino}acetyl)-1,3-dioxo-2,3-dihydro-1H-indene-5-carbonyl]-1,3-dioxo-2,3-dihydro-1H-inden-2-yl}-2-oxoethyl) carbamate]
[3]
  inhibition at 5 µM: 87%
  inhibition at 10 µM: 97%
  IC50: 2.2 µM

## CC(C)(C)OC(=O)NCC(=O)C1C(=O)c2ccc(S(=O)(=O)c3ccc4c(c3)C(=O)C(C(=O)CNC(=O)OC(C)(C)C)C4=O)cc2C1=O (stereo not shown) [Example 174, tert-butyl N-[2-(5-{[2-(2-{[(tert-butoxy)carbonyl]amino}acetyl)-1,3-dioxo-2,3-dihydro-1H-inden-5-yl]sulfonyl}-1,3-dioxo-2,3-dihydro-1H-inden-2-yl)-2-oxoethyl]carbamate]
[3]
  inhibition at 5 µM: 84%
  inhibition at 10 µM: 94%
  IC50: 11 µM
